This is an account of results in article PMC7752915 (Cell Discovery, 2020).

Structures can show the parent of a compound that is named as a salt. Where two headings read alike, the source gives them in different places.

The subject of data set [1] is SARS-CoV-2. The data set can be described thus: time-of-addition assay (full-time, entry, post-entry treatment) in Vero E6 cells. Format: cell-based.
The subject of data set [2] is SARS-CoV-2. As to conditions: for IC50: read-out: half maximal inhibitory concentration (IC50) of SARS-CoV-2 replication, viral RNA copy number in supernatant.
The subject of data set [3] is SARS-CoV-2. The data set can be described thus: in vitro.
Data set [4] concerns SARS-CoV-2. The data set can be described thus: microbe, parasite or virus in culture. To be noted: Severe acute respiratory syndrome coronavirus 2, Vero C1008, 24 h, read-out: half maximal inhibitory concentration (IC50) of SARS-CoV-2 replication.
The nature of data set [5]: cytotoxicity in Vero E6 cells, CCK-8 assay. To be noted: African green monkey. On the technique in general: Tetrazolium dyes change colour on reduction, which living cells bring about.
The next data set relates to Vero E6 cells. Put plainly: cytotoxicity in Vero E6 cells, CCK-8 assay. As to conditions: read-out: half cytotoxic concentration (CC50); Vero E6 cells, CCK-8 assay, 24 h.
Data set [6] concerns SARS-CoV-2. Put plainly: separate or combined application of CQ and CCB in Vero E6 cells, qRT-PCR and NP immunofluorescence. Format: cell-based. As to conditions: MOI 0.05, 24 h p.i.
In data set [7] the test system is SARS-CoV-2. The format is cell-based. To be noted: Vero E6 cells, MOI 0.05, 24 h p.i., viral titer in supernatant.
Data set [8] relates to COVID-19 patients with hypertension. Put plainly: retrospective clinical investigation of hospitalized COVID-19 patients with hypertension as the only comorbidity. Format: in vivo, human. As to conditions: for Admission to ICU / Invasive ventilation: number (%) of patients.
The conditions of data set [9]: cited from earlier work.
Another data set can be described thus: in vitro. As to conditions: African green monkey.
The mark [10] stands for this setting: Vero E6 cells, MOI 0.05, 24 h p.i., serial concentrations.
[11] abbreviates: Vero E6 cells, MOI 0.05, 24 h p.i.
Setting [12] is: Supplementary Table S2, by treatment regimen.
The mark [13] stands for this setting: Amlodipine n = 19, listed as Amlodipine.

The term Cmax denotes the maximum level reached in the sampled fluid or tissue.

Turning to `NCCOB(c1ccccc1)c1ccccc1` [2ABP, 2-aminoethyl diphenylborinate], the “stage of virus infection inhibited” value with SARS-CoV-2 [1] was “mainly inhibit virus infection at a stage after virus entry”. Besides, in the data set on SARS-CoV-2 [2], the “inhibition of SARS-CoV-2 replication (in words)” value (“inhibition” for short) is “significantly inhibited virus replication in a concentration-dependent manner”. For the same molecule, the selectivity ratio in the data set with SARS-CoV-2 [3] was greater than 8.26. Moreover, the IC50 in the data set on SARS-CoV-2 [4] came to 24.2 µM. The molecule also showed a CC50 at 24 h in [5] greater than 200 µM.
For the molecule `CC(=O)OCOC(=O)CN(CC(=O)OCOC(C)=O)c1ccccc1OCCOc1ccccc1N(CC(=O)OCOC(C)=O)CC(=O)OCOC(C)=O` [BAPTA-AM, 1,2-bis(2-aminophenoxy)ethane-N,N,N′,N′-tetraacetic acid tetrakis(acetoxymethyl ester)], the “selective index (SI = CC50/IC50)” value in the data set on SARS-CoV-2 [2] (Vero E6 cells) is reported as 5.83. Besides, the “inhibition” value with SARS-CoV-2 [2] (setting [10]) is recorded as “significantly inhibited virus replication in a concentration-dependent manner”. Moreover, in the data set on SARS-CoV-2 [2] (setting [11]), the IC50 amounted to 13.9 µM. Besides, in the data set on Vero E6 cells, the CC50 came out at 81.3 µM.
Turning to `CCN(CC)CCCC(C)Nc1ccnc2cc(Cl)ccc12` (stereo not shown) [CQ, chloroquine], the “effect on virus replication, separate or combined application” value in the data set on SARS-CoV-2 [6] was “distinct reduction in virus replication”.
Consider `CCOC(=O)C1=C(COCCN)NC(C)=C(C(=O)OC)C1c1ccccc1Cl` (stereo not shown) [amlodipine besylate], for which the “anti-SARS-CoV-2 activity by plaque assay (in words)” value with SARS-CoV-2 [7] is recorded as “confirmed by plaque assay”. Moreover, in [8] (setting [12]), the “Fatal, n (%)” value is 0 n (%) and the “Survival, n (%)” value was 19 (100) n (%). For the same molecule, the “Fatal (outcome)” value in [8] (Table 1, number (%) of patients, Amlodipine n = 19) is listed as 0. Also, in data set [8] (Amlodipine n = 19), the “Admission to ICU” value is reported as “none” and the Invasive ventilation result is given as “none”. Besides, in data set [8] (setting [13]), the “Admission to ICU” value stood at 0 and the Invasive ventilation is 0. In addition, in data set [9] (volunteers, 5 mg of amlodipine besylate), the Cmax is given as ~ 4 ng/mL.
Turning to `COC(=O)C1=C(C)NC(C)=C(C(=O)O[C@@H]2CCCN(Cc3ccccc3)C2)[C@@H]1c1cccc([N+](=O)[O-])c1.Cl` [benidipine HCI], the “stage of virus infection inhibited” value in the data set on SARS-CoV-2 [1] (Vero E6 cells, MOI 0.05, 24 h p.i., qRT-PCR, western blot, immunofluorescence) is listed as “mainly inhibit virus infection at a stage after virus entry”. Further, in the data set with SARS-CoV-2 [6], the “effect on virus replication, separate or combined application” value is reported as “distinct reduction in virus replication”. Further, in the data set with SARS-CoV-2 [7], the “anti-SARS-CoV-2 activity by plaque assay (in words)” value was “confirmed by plaque assay”. The “selective index (SI = CC50/IC50)” value in the data set with SARS-CoV-2 [2] (Vero E6 cells) is on record as greater than 26.25. Moreover, the IC50 in the data set with SARS-CoV-2 [2] (setting [11]) turned out to be 3.81 µM. Moreover, the peak concentration (Cmax) in data set [9] (volunteers, 8 mg of benidipine HCI) is reported as ~ 4 ng/mL. For the same molecule, the CC50 in the data set on Vero E6 cells is greater than 100 µM.
Regarding `COCCOC(=O)C1=C(C)NC(C)=C(C(=O)OC/C=C/c2ccccc2)C1c1cccc([N+](=O)[O-])c1` (stereo not shown) [cilnidipine], in the data set with SARS-CoV-2 [3], the selectivity ratio at 24 h is greater than 8.64. Besides, in “in vitro”, the CC50 at 24 h was greater than 100 µM. The Cmax in data set [9] (human, in vivo, 20 mg) is given as 16.5 ng/mL. In addition, the IC50 in the data set on SARS-CoV-2 [4] was found to be 11.6 µM.
For the molecule `CCOC(=O)[C@H](CCc1ccccc1)N[C@@H](C)C(=O)N1CCC[C@H]1C(=O)O` [enalapril maleate], the “inhibition” value with SARS-CoV-2 [2] (setting [10]) is “did not show any significant inhibition effects”.
On the same count and under the same terms, for `C[C@H](N[C@@H](CCc1ccccc1)C(=O)O)C(=O)N1CCC[C@H]1C(=O)O.O.O` [enalaprilat dehydrate] the value was “did not show any significant inhibition effects”; for `CCCCc1nc(Cl)c(CO)n1Cc1ccc(-c2ccccc2-c2nn[nH]n2)cc1` [losartan potassium], “did not show any significant inhibition effects”.
`COC(=O)C1=C(C)NC(C)=C(C(=O)OCCN(C)Cc2ccccc2)C1c1cccc([N+](=O)[O-])c1` (stereo not shown) [nicardipine HCI, nicardipine HCl]: the selectivity ratio at 24 h in the data set with SARS-CoV-2 [3] is greater than 7.51. In addition, the Cmax in data set [9] (volunteers, 60 mg nicardipine hydrochloride) is 58.4 ng/mL. The IC50 in the data set on SARS-CoV-2 [4] stood at 13.3 µM. The CC50 at 24 h in data set [5] was greater than 100 µM.
`COC(=O)C1=C(C)NC(C)=C(C(=O)OC)C1c1ccccc1[N+](=O)[O-]` [nifedipine]: in [8] (COVID-19 patients with hypertension as only comorbidity, by antihypertensive drug received), the “case fatality rate (CFR)” value is reported as 14.3%. Moreover, in [8] (setting [12]), the “Fatal, n (%)” value was 2 (14.3) n (%).
`CCCCC(=O)N(Cc1ccc(-c2ccccc2-c2nnn[nH]2)cc1)[C@H](C(=O)O)C(C)C` [valsartan]: the “inhibition” value with SARS-CoV-2 [2] (setting [10]) is “did not show any significant inhibition effects”.
